Experimental data from patent US6375993B1, “Pomegranate extracts and methods of using thereof” (priority 1999, dated 2002).

Assay: Copper-ions chelating capacity (LDL oxidation at increasing CuSO4)
Format: biochemical
Conditions: 25 μmol/L of EDTA; TBARS, two hours, 37° C.
Method: In order to examine whether pomegranate juice inhibits LDL oxidation by chelation of metal ions, LDL (100 mg of protein/L) was incubated with 0.2 mL of pomegranate juice/L (0.56 μmol of polyphenols/L) in the presence of increasing concentrations of copper ions. Incubation of LDL with 25 μmol/L of Na2 EDTA served as a positive control, as EDTA is a potent chelator of metal ions. […] At higher copper ion concentrations, EDTA could no longer overcome the pro-oxidative effect of CuSO4.

O=C([O-])CN(CCN(CC(=O)[O-])CC(=O)O)CC(=O)O.[Na+].[Na+] [EDTA, Na2 EDTA]
CuSO4 concentration up to which copper ion-induced LDL oxidation was inhibited: up to 40 μmol/L
